According to patent publication US8426420B2, “Heterocyclic pyrazole-carboxamidesas P2Y12 antagonists” (Sanofi, priority 2007, dated 2013):

Target: human P2Y12 receptor (Homo sapiens, UniProt Q9H244)
Assay: Human P2Y12 recombinant cell membrane binding assay with 33P 2MeS-ADP
Conditions: competition against 33P 2MeS-ADP, membranes of CHO cells with recombinant human P2Y12 receptor
Procedure: The ability of the compounds of the formula Ito inhibit the P2Y12 receptor can be assessed by determining the concentration of the compound of the formula I that binds to the human P2Y12 Recombinant Cell Membrane Binding Assay with 33P 2MeS-ADP.
Human P2Y12 Recombinant Cell Membrane Binding Assay
The ability of a test compound to bind to the P2Y12 receptor was evaluated in a recombinant cell membrane binding assay. In this competitive binding assay, the test compound competed against a radiolabeled agonist for binding to the P2Y12 receptor, expressed on the cell membrane. Inhibition of binding of the labeled material was measured and correlated to the amount and potency of the test compound. This binding assay is a modification of the procedure described by Takasaki, J. et. al, Mol. Pharmacol., 2001, Vol. 60, pg. 432. A membrane preparation was prepared from Chinese Hamster Ovary (CHO) cells with recombinant expression of the human P2Y12 receptor according to standard procedures as a source of P2Y12.
To a 96-well microtiterplate the following were added: a) 24 μl of assay buffer (10 mM HEPES, 138 mM NaCl, […] KCl, 12 mM NaHCO3, 1 mM EDTA-Na, 0.1% BSA, pH 7.4) b) 1 μL compound in DMSO c) 50 μL P2Y12 CHO membrane (20 μg/ml) and after 15 min at RT d) 25 μL of 1.61 nM 33P 2MeS-ADP (Perkin Elmer NEN custom synthesis, specific activity ˜2100 Ci/mmol) made in assay buffer.
After 20 min incubation at RT samples were transferred to 96-well microtiter filterplates (Millipore HTS GF/B), pre-wetted for 20 min with 300 μL of stop buffer (10 mM HEPES, 138 mM NaCl pH 7.4) and then filtered through completely with a Millipore plate vacuum. Next, wells were washed four times with 400 μl/well of stop buffer on a plate vacuum. The plate was disassembled and allowed to air dry overnight with the filter side up over night. The filter plates were snapped into adapter plates and 0.1 mL of Microscint 20 Scintillation Fluid (Perkin Elmer #6013621) was added to each well. The top of the filterplate was sealed with plastic plate covers. The sealed filterplate were incubated 2 hours at RT. A Microbeta Scintillation Counter was used to measure counts.
Compounds were diluted as 10 mM DMSO stocks and tested in a four-point, five-fold dilution series run in triplicate beginning at 10 μM, final concentration. Data were analyzed using a four-parameter curve fit with a fixed minimum and maximum experimentally defined as the average positive and negative controls on each plate.

Chain of human P2Y12 receptor (Q9H244 whole entry): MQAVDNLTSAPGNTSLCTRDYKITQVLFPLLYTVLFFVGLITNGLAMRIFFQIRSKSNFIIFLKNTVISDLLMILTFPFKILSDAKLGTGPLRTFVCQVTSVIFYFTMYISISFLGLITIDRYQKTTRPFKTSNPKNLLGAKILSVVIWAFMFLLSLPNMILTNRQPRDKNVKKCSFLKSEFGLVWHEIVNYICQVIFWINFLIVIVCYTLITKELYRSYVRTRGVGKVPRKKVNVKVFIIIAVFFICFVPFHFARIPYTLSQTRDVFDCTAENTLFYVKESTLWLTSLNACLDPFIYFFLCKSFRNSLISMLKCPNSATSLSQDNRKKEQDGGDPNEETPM

| IC50 [nM] | Structure (SMILES) |
| --- | --- |
| 183 | CCOC(=O)N1CCN(C(=O)[C@H](CCC(=O)O)NC(=O)c2cc(OCC(=O)N3CCC[C@H]3C(=O)NCCSC)n(-c3ccccc3)n2)CC1 [Example 3, 4-{(S)-4-Carboxy-2-[(5-{2-[(S)-2-(2-methylsulfanyl-ethylcarbamoyl)-pyrrolidin-1-yl]-2-oxo-ethoxy}-1-phenyl-1H-pyrazole-3-carbonyl)-amino]-butyryl}-piperazine-1-carboxylic acid ethyl ester] |
| 183 | CCOC(=O)N1CCN(C(=O)[C@H](CC(=O)O)NC(=O)c2cc(OCC(=O)N3CCC[C@H]3C(=O)NCC(F)F)n(-c3ccccc3)n2)CC1 [Example 57, 4-{(S)-3-Carboxy-2-[(5-{2-[(S)-2-(2,2-difluoro-ethylcarbamoyl)-pyrrolidin-1-yl]-2-oxo-ethoxy}-1-phenyl-1H-pyrazole-3-carbonyl)-amino]-propionyl}-piperazine-1-carboxylic acid ethyl ester] |
| 190 | CCOC(=O)N1CCN(C(=O)[C@H](CC(=O)O)NC(=O)c2cc(OCC(=O)N3CCC[C@H]3C(=O)NCCF)n(-c3cccc(F)c3)n2)CC1 [Example 78, 4-((S)-3-Carboxy-2-{[5-[2-((S)-2-(2-fluoroethylcarbamoyl)-pyrrolidin-1-yl)-2-oxo-ethoxy]-1-(3-fluoro-phenyl)-1H-pyrazole-3-carbonyl]-amino}-propionyl)-piperazine-1-carboxylic acid ethyl ester] |
| 145 | CCOC(=O)N1CCN(C(=O)[C@H](CC(=O)O)NC(=O)c2cc(OCC(=O)N3CCC[C@H]3C(=O)NCC(F)F)n(-c3cccc(F)c3)n2)CC1 [Example 79, 4-((S)-3-Carboxy-2-{[5-[2-((S)-2-(2,2-difluoroethylcarbamoyl)-pyrrolidin-1-yl)-2-oxo-ethoxy]-1-(3-fluoro-phenyl)-1H-pyrazole-3-carbonyl]-amino}-propionyl)-piperazine-1-carboxylic acid ethyl ester] |
| 154 | CCOC(=O)N1CCN(C(=O)[C@H](CCC(=O)O)NC(=O)c2cc(OCC(=O)N3CCC[C@H]3C(=O)NCC(F)(F)F)n(-c3ccc(F)c(F)c3)n2)CC1 [Example 85, 4-((S)-4-Carboxy-2-{[5-[2-((S)-2-(2,2,2-trifluoroethylcarbamoyl)-pyrrolidin-1-yl)-2-oxo-ethoxy]-1-(3,4-difluoro-phenyl)-1H-pyrazole-3-carbonyl]-amino}-butyryl)-piperazine-1-carboxylic acid ethyl ester] |
| 125 | CCOC(=O)N1CCN(C(=O)[C@H](CNS(C)(=O)=O)NC(=O)c2cc(OCC(=O)N3CCC[C@H]3C(=O)NC3CCC3)n(-c3ccccc3)n2)CC1 [Example 88, 4-[(S)-2-({5-[2-((S)-2-Cyclobutylcarbamoyl-pyrrolidin-1-yl)-2-oxo-ethoxy]-1-phenyl-1H-pyrazole-3-carbonyl}-amino)-3-methanesulfonylamino-propionyl]-piperazine-1-carboxylic acid ethyl ester] |
| 111 | CCOC(=O)N1CCN(C(=O)[C@H](CNC(=O)OC)NC(=O)c2cc(OCC(=O)N3CCC[C@H]3C(=O)NC3CCC3)n(-c3ccccc3)n2)CC1 [Example 89, 4-[(S)-2-({5-[2-((S)-2-Cyclobutylcarbamoyl-pyrrolidin-1-yl)-2-oxo-ethoxy]-1-phenyl-1H-pyrazole-3-carbonyl}-amino)-3-methoxycarbonylamino-propionyl]-piperazine-1-carboxylic acid ethyl ester] |

Test system: human platelet rich plasma
Assay: Inhibition of human platelet aggregation, 96-well assay
Format: cell-based
Conditions: Homo sapiens, Platelet, 20 min
Procedure: Inhibition of Human Platelet Aggregation
Alternatively to a binding assay which measures a compound's ability to bind to the P2Y12 receptor, the effect on cellular function was also determined. This ability of the compound was evaluated in two platelet aggregation assays: in 96-well plates and with the “Born”-method using single cuvettes.
Whole blood was collected from healthy volunteers using 20 ml syringes containing 2 ml of ACD-A Aqua-Citrat-Dextrose-A, Fresenius). The anticoagulated whole blood was transferred into 15 ml polypropylene conical tubes (10 ml per tube). The tubes were centrifuged for 15 minutes at 150×g at RT without using the centrifuge brake. This procedure leads to a pellet of cellular components and a supernatant of platelet rich plasma (PRP). The PRP layer was collected from each tube and pooled for each donor. To avoid carry over of cellular components following centrifugation, approximately 5 ml of PRP was left in the tube. The platelet concentration was determined using a Coulter Counter.
The 15 ml tubes containing the pellet of cellular components were centrifuged again for 10 minutes at 1940×g. This pelleted out most particulate blood constituents remaining, leaving a layer of Platelet Poor Plasma (PPP). The PPP was collected for each donor. The PRP layer, previously set aside, was diluted with PPP to a final concentration of approximately 3×E8 platelets/ml with the PPP.
The human platelet aggregation assay is performed in 96-well plates using a microtiter plate reader (SpectraMax Plus 384 with SoftMax Pro software from Molecular Devices). In the plate 15 μl of test compound at 10× final concentration in NaCl is mixed with 120 μl fresh PRP and incubated for 5 minutes. Following that incubation period, 15 μl of 40 μM ADP is added to the reaction mix. This addition of ADP is sufficient to induce aggregation in the absence of an inhibitor. The plates are then transferred to the microplate reader and aggregation is measured over 20 minutes. The instrument settings include:
Absorbance at 650 nm, run time 20 minutes with readings in 1-minute intervals and 50 seconds shaking between readings all performed at 37° C.

| IC50 [nM] | Structure (SMILES) |
| --- | --- |
| 490 | CCOC(=O)N1CCN(C(=O)[C@H](CCC(=O)OCC2(C)COC2)NC(=O)c2cc(OCC(=O)N3CCC[C@H]3C(=O)NC3CCC3)n(-c3ccccc3)n2)CC1 [Example 203, 4-[(S)-2-({5-[2-((S)-2-Cyclobutylcarbamoyl-pyrrolidin-1-yl)-2-oxo-ethoxy]-1-phenyl-1H-pyrazole-3-carbonyl}-amino)-4-(3-methyl-oxetan-3-ylmethoxycarbonyl)-butyryl]-piperazine-1-carboxylic acid ethyl ester] |
| 720 | CCOC(=O)N1CCN(C(=O)[C@H](CCC(=O)OCC2(CC)COC2)NC(=O)c2cc(OCC(=O)N3CCC[C@H]3C(=O)NC3CCC3)n(-c3ccccc3)n2)CC1 [Example 204, 4-[(S)-2-({5-[2-((S)-2-Cyclobutylcarbamoyl-pyrrolidin-1-yl)-2-oxo-ethoxy]-1-phenyl-1H-pyrazole-3-carbonyl}-amino)-4-(3-ethyl-oxetan-3-ylmethoxycarbonyl)-butyryl]-piperazine-1-carboxylic acid ethyl ester] |
| 950 | CCOC(=O)N1CCN(C(=O)[C@H](CC(C)C)NC(=O)c2cc(OCC(=O)N3CCC[C@H]3C(=O)NC3CCC3)n(-c3ccccc3)n2)CC1 [Example 215, 4-[(S)-2-({5-[2-((S)-2-Cyclobutylcarbamoyl-pyrrolidin-1-yl)-2-oxo-ethoxy]-1-phenyl-1H-pyrazole-3-carbonyl}-amino)-4-methyl-pentanoyl]-piperazine-1-carboxylic acid ethyl ester] |
| 800 | O=C(NCC(=O)N1CCN(C(=O)[C@H]2C[C@@H]2F)CC1)c1cc(OCC(=O)N2CCC[C@H]2C(=O)NC2CCC2)n(-c2ccccc2)n1 [Example 245, 5-[2-((S)-2-Cyclobutylcarbamoyl-pyrrolidin-1-yl)-2-oxo-ethoxy]-1-phenyl-1H-pyrazole-3-carboxylic acid {2-[4-((1R,2S)-2-fluoro-cyclopropanecarbonyl)-piperazin-1-yl]-2-oxo-ethyl}-amide] |
| 560 | O=C(NCC(=O)N1CCN(C(=O)[C@@H]2C[C@H]2c2ccccc2)CC1)c1cc(OCC(=O)N2CCC[C@H]2C(=O)NC2CCC2)n(-c2ccccc2)n1 [Example 246, 5-[2-((S)-2-Cyclobutylcarbamoyl-pyrrolidin-1-yl)-2-oxo-ethoxy]-1-phenyl-1H-pyrazole-3-carboxylic acid {2-oxo-2-[4-((1R,2R)-2-phenyl-cyclopropanecarbonyl)-piperazin-1-yl]-ethyl}-amide] |
| 240 | CCOCCOC(=O)N1CCN(C(=O)CNC(=O)c2cc(OCC(=O)N3CCC[C@H]3C(=O)NC3CCC3)n(-c3ccccc3)n2)CC1 [Example 257, 4-[2-({5-[2-((S)-2-Cyclobutylcarbamoyl-pyrrolidin-1-yl)-2-oxo-ethoxy]-1-phenyl-1H-pyrazole-3-carbonyl}-amino)-acetyl]-piperazine-1-carboxylic acid 2-ethoxy-ethyl ester] |
| 490 | O=C(NCC(=O)N1CCN(C(=O)OCc2ccccc2)CC1)c1cc(OCC(=O)N2CCC[C@H]2C(=O)NC2CCC2)n(-c2ccccc2)n1 [Example 275, 4-[2-({5-[2-((S)-2-Cyclobutylcarbamoyl-pyrrolidin-1-yl)-2-oxo-ethoxy]-1-phenyl-1H-pyrazole-3-carbonyl}-amino)-acetyl]-piperazine-1-carboxylic acid benzyl ester] |

| Structure (SMILES) | IC50 [nM] |
| --- | --- |
| CCOC(=O)N1CCN(C(=O)[C@H](CCC(=O)OCCC(C)OC)NC(=O)c2cc(OCC(=O)N3CCC[C@H]3C(=O)NC3CCC3)n(-c3ccccc3)n2)CC1 (stereo partly drawn) [Example 205, 4-[(S)-2-({5-[2-((S)-2-Cyclobutylcarbamoyl-pyrrolidin-1-yl)-2-oxo-ethoxy]-1-phenyl-1H-pyrazole-3-carbonyl}-amino)-4-(3-methoxy-butoxycarbonyl)-butyryl]-piperazine-1-carboxylic acid ethyl ester] | 460 |
